Measured values taken from paper PMC10207986, “Computational high-throughput screening and in vitro approaches identify CB-006-3; A novel PI3K-BRAF^V600E dual targeted inhibitor against melanoma” (Oncology Research, 2022).

Experiments:
Type in all cases: biochemical
[1] = biological target: T1, BRAF^V600E (B-Raf^V600E) (Homo sapiens, UniProt P15056, V600E); assay: luminescence kinase assay (Kinase-Glo Max); conditions: 500 µM ATP, Raf substrate, 45 min, 30°C
T1 construct: enzyme of BPS Bioscience B-Raf V600E assay kit

[2] = biological target: T2, PI3KCD (PI3K delta) (Homo sapiens, UniProt O00329); assay: HTRF PI3K kinase assay; conditions: PIP2 substrate, ATP; 10 min pre-incubation, 30 min, room temperature
T2 construct: gene PIK3CD; enzyme used with Merck Millipore PI3K HTRF kit; with Phosphatidylinositol 3-kinase regulatory subunit alpha

[3] = biological target: T3, PI3KCG (PI3K gamma) (Homo sapiens, UniProt P48736); assay: HTRF PI3K kinase assay; conditions: PIP2 substrate, ATP; 10 min pre-incubation, 30 min, room temperature
T3 construct: gene PIK3CG; enzyme used with Merck Millipore PI3K HTRF kit
T3 sequence (P48736 whole entry): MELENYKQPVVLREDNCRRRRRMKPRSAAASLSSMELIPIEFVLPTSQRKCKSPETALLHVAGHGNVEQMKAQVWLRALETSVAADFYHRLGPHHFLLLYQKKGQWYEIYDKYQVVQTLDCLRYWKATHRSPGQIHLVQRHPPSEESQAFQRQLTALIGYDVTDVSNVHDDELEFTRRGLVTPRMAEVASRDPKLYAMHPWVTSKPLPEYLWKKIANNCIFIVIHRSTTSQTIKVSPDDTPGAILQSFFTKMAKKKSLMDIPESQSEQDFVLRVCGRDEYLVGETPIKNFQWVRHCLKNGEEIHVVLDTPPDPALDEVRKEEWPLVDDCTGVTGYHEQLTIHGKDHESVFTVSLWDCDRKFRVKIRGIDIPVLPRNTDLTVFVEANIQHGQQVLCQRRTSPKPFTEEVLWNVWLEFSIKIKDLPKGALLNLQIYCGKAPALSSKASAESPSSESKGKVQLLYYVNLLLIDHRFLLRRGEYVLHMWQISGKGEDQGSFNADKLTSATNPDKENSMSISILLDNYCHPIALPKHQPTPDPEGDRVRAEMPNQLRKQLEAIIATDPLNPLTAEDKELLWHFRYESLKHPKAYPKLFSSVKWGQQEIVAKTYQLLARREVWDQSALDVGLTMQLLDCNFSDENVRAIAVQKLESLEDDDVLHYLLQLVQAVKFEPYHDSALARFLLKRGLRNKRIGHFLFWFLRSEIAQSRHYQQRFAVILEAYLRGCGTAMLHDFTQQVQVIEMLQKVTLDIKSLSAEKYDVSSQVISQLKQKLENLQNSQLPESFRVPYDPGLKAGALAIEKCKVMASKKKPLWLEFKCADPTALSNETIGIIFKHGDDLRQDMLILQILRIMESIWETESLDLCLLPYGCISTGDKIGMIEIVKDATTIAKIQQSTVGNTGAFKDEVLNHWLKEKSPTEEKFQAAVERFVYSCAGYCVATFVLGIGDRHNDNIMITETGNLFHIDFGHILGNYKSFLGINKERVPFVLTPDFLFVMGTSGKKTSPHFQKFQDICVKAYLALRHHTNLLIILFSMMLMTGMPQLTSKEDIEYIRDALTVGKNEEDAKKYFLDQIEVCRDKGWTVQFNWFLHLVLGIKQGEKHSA

T1 sequence (P15056 2-766 V600E): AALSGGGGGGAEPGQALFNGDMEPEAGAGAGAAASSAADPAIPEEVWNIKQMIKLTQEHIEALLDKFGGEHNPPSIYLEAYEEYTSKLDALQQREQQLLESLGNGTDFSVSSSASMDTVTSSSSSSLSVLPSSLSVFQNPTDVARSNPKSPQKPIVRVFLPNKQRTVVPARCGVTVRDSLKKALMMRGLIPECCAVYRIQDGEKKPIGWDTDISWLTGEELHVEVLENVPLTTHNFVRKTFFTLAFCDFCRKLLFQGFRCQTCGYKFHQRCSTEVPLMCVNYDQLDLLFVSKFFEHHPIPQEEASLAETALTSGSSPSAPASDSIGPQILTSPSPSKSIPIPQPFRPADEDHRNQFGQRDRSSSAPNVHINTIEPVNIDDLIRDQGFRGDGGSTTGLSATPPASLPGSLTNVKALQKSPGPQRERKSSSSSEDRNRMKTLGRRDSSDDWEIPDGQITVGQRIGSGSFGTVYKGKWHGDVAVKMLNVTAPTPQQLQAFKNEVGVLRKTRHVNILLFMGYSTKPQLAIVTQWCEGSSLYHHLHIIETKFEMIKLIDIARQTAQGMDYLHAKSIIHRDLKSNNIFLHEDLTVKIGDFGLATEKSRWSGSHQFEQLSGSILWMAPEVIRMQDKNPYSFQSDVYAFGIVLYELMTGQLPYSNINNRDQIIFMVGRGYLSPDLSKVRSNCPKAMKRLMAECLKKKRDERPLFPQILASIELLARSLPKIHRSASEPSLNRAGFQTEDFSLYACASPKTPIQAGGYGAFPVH
T2 sequence (O00329 whole entry): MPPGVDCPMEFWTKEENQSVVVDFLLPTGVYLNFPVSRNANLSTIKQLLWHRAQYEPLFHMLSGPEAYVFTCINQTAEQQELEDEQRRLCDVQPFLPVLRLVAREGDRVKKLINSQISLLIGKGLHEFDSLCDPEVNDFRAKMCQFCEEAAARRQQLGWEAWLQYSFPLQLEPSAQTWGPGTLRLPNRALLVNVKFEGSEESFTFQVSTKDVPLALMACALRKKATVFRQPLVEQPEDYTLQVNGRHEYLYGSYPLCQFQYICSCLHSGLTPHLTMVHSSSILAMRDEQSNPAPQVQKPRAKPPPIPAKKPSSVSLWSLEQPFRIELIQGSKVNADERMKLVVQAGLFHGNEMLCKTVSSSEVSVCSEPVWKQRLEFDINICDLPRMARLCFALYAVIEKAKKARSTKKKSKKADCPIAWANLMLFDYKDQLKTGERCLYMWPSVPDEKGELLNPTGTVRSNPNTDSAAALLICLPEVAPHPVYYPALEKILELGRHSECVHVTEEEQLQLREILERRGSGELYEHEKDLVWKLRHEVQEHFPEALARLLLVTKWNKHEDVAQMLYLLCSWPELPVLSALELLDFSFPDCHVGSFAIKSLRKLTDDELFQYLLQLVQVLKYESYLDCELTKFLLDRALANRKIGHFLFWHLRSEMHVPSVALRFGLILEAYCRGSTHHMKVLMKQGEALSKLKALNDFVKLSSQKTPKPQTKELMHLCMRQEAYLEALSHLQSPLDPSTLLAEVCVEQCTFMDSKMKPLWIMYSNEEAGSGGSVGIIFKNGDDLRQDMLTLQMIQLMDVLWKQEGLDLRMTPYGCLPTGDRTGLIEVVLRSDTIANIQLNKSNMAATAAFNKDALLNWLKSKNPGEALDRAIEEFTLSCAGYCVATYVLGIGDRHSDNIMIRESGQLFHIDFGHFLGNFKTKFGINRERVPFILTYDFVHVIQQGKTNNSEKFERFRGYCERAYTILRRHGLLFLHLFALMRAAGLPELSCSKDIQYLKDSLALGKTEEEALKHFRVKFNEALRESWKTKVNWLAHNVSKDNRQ
T2 sequence (P27986 2-724 partner): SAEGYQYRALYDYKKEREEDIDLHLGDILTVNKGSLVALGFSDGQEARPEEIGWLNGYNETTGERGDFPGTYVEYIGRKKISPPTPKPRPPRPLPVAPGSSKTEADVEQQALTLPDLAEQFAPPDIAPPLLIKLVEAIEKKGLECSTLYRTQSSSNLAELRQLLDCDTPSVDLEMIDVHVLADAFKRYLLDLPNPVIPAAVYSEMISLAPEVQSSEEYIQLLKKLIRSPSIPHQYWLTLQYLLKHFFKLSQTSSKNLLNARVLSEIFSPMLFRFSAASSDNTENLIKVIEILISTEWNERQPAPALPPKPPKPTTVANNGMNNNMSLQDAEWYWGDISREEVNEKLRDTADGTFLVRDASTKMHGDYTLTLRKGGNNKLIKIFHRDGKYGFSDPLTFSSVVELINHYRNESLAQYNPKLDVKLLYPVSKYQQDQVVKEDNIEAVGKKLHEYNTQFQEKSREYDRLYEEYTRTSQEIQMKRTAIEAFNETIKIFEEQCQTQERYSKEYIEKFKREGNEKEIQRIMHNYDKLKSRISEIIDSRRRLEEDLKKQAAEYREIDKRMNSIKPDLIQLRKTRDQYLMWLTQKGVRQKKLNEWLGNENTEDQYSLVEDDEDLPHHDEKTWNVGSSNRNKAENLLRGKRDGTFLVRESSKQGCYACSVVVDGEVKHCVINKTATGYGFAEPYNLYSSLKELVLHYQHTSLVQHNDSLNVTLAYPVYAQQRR

SMILES: Cc1cc(C)c(CC(=O)N2C[C@@H]3CC(=O)NCCN(C)C(=O)c4cccn(c4=O)Cc4cn(nn4)[C@@H]3C2)c(C)c1 (relative stereo) [CB-006-3, rel-(17aS,20aS)-19-(mesitylacetyl)-12-methyl-12,13,14,15,17,17a,18,19,20,20a-decahydro-6,10-methano-1,4-methenopyrrolo[3,4-r] [1,2,3,6,12,15]hexaazacyclononadecine-11,16,21-trione]
- IC50 [1]: 70.8 nM
- IC50 [2]: 160 nM
- IC50 [3]: 75.8 nM
